The test system of one assay is OPC-DRG co-cultures. The assay can be described thus: In vitro myelination assay. The format is cell-based, rat OPCs, mouse DRG. The conditions noted are these: 10 nM; CTRL 100%; mean ± S.E.M. The protocol: OPC-DRG co-cultures were prepared according to a previously described protocol.
DRG explants from E14.5 mice were directly put in culture after being plucked off from embryo spinal cords. Then, they were grown in Neurobasal medium (Life Technologies) in presence of 100 ng/ml nerve growth factor (NGF, Sigma-Aldrich), and in presence of 10 μM fluorodeoxyuridine (FUDR, Sigma-Aldrich) in order to remove all non-neuronal cells.
Purified primary rat OPCs were obtained from mixed glial cultures by orbital shaking for 3 hours. […]
At day 15, OPC/DRG co-cultures treated with either the selected compounds or the vehicle were fixed and treated with rat anti-MBP (Millipore), mouse anti-SMI 31 and mouse anti-SMI 32 (Cell Signaling), followed by the secondary goat anti-rat/-mouse antibody, conjugated to Alexa Fluor 555 or Alexa Fluor 488 (Life Technologies). The quantification of myelin segments was performed following a previously described protocol with ZEISS LSM Image Browser by acquiring 6 random fields of 4–5 coverslips for each experimental condition. […] The amount of myelin per axon (myelination index) was calculated as the ratio between the white pixels area and the green pixels area. […]

A further assay concerns the target T1, CX3CR1 (Homo sapiens, UniProt P49238).
T1 sequence (P49238 1-355): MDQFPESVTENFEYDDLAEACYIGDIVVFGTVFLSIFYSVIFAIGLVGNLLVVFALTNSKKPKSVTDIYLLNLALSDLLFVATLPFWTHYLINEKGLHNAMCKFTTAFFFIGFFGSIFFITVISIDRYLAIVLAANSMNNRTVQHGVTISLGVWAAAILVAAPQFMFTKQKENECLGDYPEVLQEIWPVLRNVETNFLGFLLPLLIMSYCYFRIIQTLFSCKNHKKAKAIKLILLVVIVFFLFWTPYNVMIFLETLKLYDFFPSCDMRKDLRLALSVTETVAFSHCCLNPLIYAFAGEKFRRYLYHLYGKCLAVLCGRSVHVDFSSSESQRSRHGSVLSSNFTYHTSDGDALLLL
The assay can be described thus: Cellular functional assay CX3CR1.

The target in a further assay is T2, CCR7 (Homo sapiens, UniProt P32248).
T2 sequence (P32248 25-378): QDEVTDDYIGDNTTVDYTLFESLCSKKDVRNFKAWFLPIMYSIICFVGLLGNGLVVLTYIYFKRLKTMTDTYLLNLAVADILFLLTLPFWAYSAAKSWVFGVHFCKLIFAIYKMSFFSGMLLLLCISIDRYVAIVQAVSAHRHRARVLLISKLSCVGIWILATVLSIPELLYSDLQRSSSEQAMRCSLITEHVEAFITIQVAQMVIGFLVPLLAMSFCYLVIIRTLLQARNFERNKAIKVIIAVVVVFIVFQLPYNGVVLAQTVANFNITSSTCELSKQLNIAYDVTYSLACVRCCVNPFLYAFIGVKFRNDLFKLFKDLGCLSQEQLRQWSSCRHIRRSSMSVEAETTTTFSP
The assay can be described thus: Cellular functional assay CCR7.

The target in a further assay is T3, mGluR5 (Homo sapiens, UniProt P41594).
T3 construct: Eurofins Cerep (external service)
T3 sequence (P41594 21-1212): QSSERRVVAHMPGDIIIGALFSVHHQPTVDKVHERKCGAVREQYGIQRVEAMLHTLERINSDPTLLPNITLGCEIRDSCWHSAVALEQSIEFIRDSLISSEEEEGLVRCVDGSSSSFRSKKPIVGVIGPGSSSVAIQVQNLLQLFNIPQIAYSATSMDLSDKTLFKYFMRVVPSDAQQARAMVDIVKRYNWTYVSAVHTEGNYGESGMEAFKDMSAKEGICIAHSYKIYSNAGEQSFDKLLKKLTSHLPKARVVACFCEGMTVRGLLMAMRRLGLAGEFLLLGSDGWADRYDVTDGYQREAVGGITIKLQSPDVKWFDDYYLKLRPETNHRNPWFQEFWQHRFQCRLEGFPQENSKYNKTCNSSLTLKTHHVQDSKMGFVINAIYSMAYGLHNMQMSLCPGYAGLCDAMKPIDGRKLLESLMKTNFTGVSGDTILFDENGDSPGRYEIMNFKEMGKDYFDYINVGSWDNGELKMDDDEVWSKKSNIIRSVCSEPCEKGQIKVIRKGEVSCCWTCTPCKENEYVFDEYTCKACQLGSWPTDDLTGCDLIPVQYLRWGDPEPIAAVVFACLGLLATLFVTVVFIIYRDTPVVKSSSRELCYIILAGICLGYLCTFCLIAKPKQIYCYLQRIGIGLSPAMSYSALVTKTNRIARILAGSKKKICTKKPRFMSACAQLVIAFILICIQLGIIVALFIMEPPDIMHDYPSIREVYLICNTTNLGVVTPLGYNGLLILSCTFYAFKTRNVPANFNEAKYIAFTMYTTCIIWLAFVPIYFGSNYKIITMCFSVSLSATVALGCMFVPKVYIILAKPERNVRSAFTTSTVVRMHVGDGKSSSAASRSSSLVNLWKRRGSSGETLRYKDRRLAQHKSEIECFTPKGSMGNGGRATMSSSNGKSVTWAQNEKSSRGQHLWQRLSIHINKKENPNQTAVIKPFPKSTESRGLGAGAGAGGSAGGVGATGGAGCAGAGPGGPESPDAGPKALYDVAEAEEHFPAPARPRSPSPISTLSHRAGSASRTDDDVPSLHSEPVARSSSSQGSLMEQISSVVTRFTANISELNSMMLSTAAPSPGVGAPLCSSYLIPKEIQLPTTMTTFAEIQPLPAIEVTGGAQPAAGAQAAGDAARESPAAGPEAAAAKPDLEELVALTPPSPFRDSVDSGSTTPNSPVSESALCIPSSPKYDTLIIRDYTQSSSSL
Nature of the assay: Binding assay mGluR5. The conditions noted are these: 100 nM.

The next assay has as its target T4, APJ (Homo sapiens, UniProt P35414).
T4 construct: Eurofins Cerep (external service)
T4 sequence (P35414 1-380): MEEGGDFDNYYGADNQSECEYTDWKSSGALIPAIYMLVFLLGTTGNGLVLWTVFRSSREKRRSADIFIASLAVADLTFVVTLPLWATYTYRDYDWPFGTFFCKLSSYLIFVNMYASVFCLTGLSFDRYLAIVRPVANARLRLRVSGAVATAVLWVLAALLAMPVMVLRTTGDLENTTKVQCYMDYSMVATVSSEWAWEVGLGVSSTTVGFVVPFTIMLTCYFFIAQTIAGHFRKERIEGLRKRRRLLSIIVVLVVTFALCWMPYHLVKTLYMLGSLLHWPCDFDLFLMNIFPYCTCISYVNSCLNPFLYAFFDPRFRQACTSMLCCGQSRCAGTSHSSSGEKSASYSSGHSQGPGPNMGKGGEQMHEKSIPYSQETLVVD
Nature of the assay: Binding assay APJ. The conditions noted are these: 100 nM.

Another assay has as its target CCR5 (Homo sapiens, UniProt P51681). The assay can be described thus: Cellular functional assay CCR5.
Where [1] appears, read: antagonist effect, 100 nM, single replicates 1st and 2nd, 0.1 µM.
Setting [2] is: read-out: % Inhibition of control agonist response.
Where [3] appears, read: read-out: Agonist Response (% of Control), Mean, antagonist effect, 100 nM, mean of 2.
Where [4] appears, read: read-out: Agonist Response (% of Control), antagonist effect, 100 nM, single replicates 1st and 2nd.
Where [5] appears, read: mean of 2, read-out: % Of control specific binding, Mean.
Where [6] appears, read: read-out: % Inhibition of control specific binding.
Where [7] appears, read: single replicates 1 and 2, 0.1 µM.
[8] abbreviates: single replicates 1 and 2, read-out: % Of control specific binding.

“And” between values parts separate entries of the source, which are not always exact repeats. Equal values may be shown once. Read-outs that look alike come from different tables or passages of the source.

Chain of CCR5 (P51681 whole entry): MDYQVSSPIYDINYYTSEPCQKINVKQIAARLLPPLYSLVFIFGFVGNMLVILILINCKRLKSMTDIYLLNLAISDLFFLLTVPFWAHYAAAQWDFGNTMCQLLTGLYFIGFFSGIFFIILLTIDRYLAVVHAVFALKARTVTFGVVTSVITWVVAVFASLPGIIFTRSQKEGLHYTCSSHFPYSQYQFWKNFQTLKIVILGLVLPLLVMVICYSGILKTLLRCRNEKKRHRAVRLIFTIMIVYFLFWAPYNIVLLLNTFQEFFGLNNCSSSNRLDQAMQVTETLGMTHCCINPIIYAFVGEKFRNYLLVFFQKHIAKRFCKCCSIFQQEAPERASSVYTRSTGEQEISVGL

In general, inhibition refers to the change of the read-out against control, counted positive when it falls. As for `Cc1ccc(-c2nnc(SCC(=O)Nc3nccs3)[nH]2)cc1` [Compound 9], the “Myelination Index” value in the assay with OPC-DRG co-cultures was determined as 155.0 ± 12.08%. For the same compound, the “Agonist Response (% of Control)” value was 105.4% at CX3CR1 (setting [1]); 122.8% at CCR7 (setting [1]); 140.8% and 112.0% at CCR5 (setting [1]). Besides, the inhibition at 0.1 µM was 0.2% at CX3CR1 (setting [2]); -1.8% on CCR7 (setting [2]); -4% on mGluR5 (setting [6]); -7% on APJ (setting [6]); -1.5% at CCR5 (CCR5, read-out: % Inhibition of control agonist response). Moreover, the activity at 0.1 µM on CX3CR1 (setting [3]) turned out to be 107%; on CX3CR1 (setting [4]) it was 110%; at CCR7 (setting [3]) it was 127%; on CCR7 (setting [4]) it was 131%; at CCR5 (CCR5, read-out: Agonist Response (% of Control), Mean, antagonist effect, 100 nM, mean of 2), 126%. In addition, the remaining activity at 0.1 µM at mGluR5 (setting [5]) was 104%; at mGluR5 (setting [8]), 102%; at APJ (setting [5]) it was 107%; at APJ (setting [8]), 108%. Moreover, the “% Of control specific binding” value at mGluR5 (setting [7]) is 106.8%; at APJ (setting [7]), 105.7%.

The values are drawn from paper PMC7176092, “Development of the first in vivo GPR17 ligand through an iterative drug discovery pipeline: A novel disease-modifying strategy for multiple sclerosis” (PLoS ONE, 2020).
